Molecules are shown by their SMILES.

Holding throughout (type): cell-based
The target in test [1] is T1, mechano-electrical transducer (MET) channel (pore subunit TMC1) (Mus musculus, UniProt Q8R4P5).
T1 construct: native MET channel in early postnatal CD-1 mouse outer hair cells
T1 sequence (Q8R4P5 1-757): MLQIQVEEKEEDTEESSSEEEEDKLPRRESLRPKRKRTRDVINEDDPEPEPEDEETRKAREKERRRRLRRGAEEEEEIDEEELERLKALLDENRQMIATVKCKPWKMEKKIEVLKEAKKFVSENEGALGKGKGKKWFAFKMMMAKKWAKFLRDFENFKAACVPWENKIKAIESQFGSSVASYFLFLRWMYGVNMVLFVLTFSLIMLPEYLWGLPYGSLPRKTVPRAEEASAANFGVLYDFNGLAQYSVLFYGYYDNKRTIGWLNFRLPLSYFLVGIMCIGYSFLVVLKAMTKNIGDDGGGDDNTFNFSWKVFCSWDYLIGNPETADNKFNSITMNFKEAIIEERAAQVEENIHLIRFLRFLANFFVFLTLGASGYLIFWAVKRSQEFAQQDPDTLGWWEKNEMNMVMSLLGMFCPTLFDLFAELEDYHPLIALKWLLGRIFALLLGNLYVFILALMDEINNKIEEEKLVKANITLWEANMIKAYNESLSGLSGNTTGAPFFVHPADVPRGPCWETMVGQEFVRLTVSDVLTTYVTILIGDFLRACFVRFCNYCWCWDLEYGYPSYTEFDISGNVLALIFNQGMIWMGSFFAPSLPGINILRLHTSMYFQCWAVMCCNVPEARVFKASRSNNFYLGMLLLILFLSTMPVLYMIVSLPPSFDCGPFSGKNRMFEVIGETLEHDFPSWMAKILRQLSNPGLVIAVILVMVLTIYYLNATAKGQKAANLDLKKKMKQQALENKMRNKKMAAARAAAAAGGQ
Briefly: whole-cell patch clamp of MET currents in OHCs, fractional block at […] (approximately […]). On the technique in general: In patch-clamp work, channel activity is measured electrically.

The target in test [2] is T1, mechano-electrical transducer (MET) channel (pore subunit TMC1). Briefly: whole-cell patch clamp of MET currents in OHCs, fractional block at […].
Test [3] has the same target. The test can be described thus: whole-cell patch clamp of MET currents in OHCs, fractional block at […], partially reversible.

With `C(=C\c1ccccc1)/CN1CCC(c2nc3ccccc3[nH]2)CC1` [UoS-3606], the inhibition at 50 µM in test [1] is approximately 80%. As to `O=C(CN1CCC(c2nc3ccccc3[nH]2)CC1)Nc1cccc([N+](=O)[O-])c1` [UoS-3607], the inhibition at 50 µM in test [2] is approximately 70%. For the compound `O=C(Nc1ccc(OC(F)(F)F)cc1)C1CCN(Cc2nc3ccccc3[nH]2)CC1` [UoS-8052], the inhibition at 50 µM in test [3] is approximately 70%.

In general, inhibition refers to the change of the read-out against control, counted positive when it falls. Read a low inhibition as a weak effect.
